Results published in US20250269043A1, “TARGETED BIFUNCTIONAL DEGRADERS” (YALE UNIVERSITY, priority 2019, published 2025).

Legend:
[1] = tested on: HepG2 cells; test: DNP-AF3-mediated α-DNP antibody endocytosis by HepG2 cells (flow cytometry); format: cell-based, human; details: α-DNP antibody 1 nM
Experimental: The intracellular fluorescence of cells that were incubated at 37° C. with both fluorescently labeled α-DNP antibody and DNP-AF3 for a given amount of time was examined. Cells were then washed, removed from the plate with trypsin, and subjected to flow cytometry.
It was then determined if reagents which inhibit ternary complex formation inhibit endocytosis mediated by DNP-AF3.
Next, whether inhibitors of specific endocytic pathways inhibited α-DNP antibody endocytosis was determined (FIG. 106).

[2] = Pharmacokinetics of MIF-GN3 in male nude mice; format: in vivo; details: one mpk dose
Description: The ability of MIF-GN3 to mediate the depletion of injected human MIF from serum in mice was studied. First, the pharmacokinetics of the bifunctional molecule were investigated.

[3] = tested on: HepG2 cells; test: Colocalization of endocytosed MIF protein in HepG2 cells; format: cell-based, human; details: MIF 100 nM, MIF-GN3 200 nM; FIG. 133
Experimental: FIG. 133 illustrates that cells treated with MIF-GN3 and exogenous MIF accumulate MIF punctate in cells. […] MIF was present at a concentration of 100 nM, and MIF-GN3 was present at a concentration of 200 nM.
In order to investigate the subcellular localization of endocytosed MIF protein, colocalization studies were performed in HepG2 cells. After 12 hours of MIF-GN mediated endocytosis, several punctae displaying MIF-derived fluorescence were present in each cell.

Compound	uptake of α-DNP antibody at low target protein concentration [1]	half-life in serum [2]	time of maximum plasma concentration [2]	colocalization of MIF signal with LAMP2 [3]
CC(=O)NC1C(OCCOCCOCCNC(=O)CCOCC(COCCC(=O)NCCOCCOCCOC2OC(CO)C(O)C(O)C2NC(C)=O)(COCCC(=O)NCCOCCOCCOC2OC(CO)C(O)C(O)C2NC(C)=O)NC(=O)CNC(=O)COCCOCCOCCNc2ccc([N+](=O)[O-])cc2[N+](=O)[O-])OC(CO)C(O)C1O (stereo not shown) [DNP-GN3]	not effective	–	–	–
CC(=O)N[C@H]1[C@H](OCCOCCOCCNC(=O)CCOCC(COCCC(=O)NCCOCCOCCO[C@@H]2O[C@H](CO)[C@H](O)[C@H](O)[C@H]2NC(C)=O)(COCCC(=O)NCCOCCOCCO[C@@H]2O[C@H](CO)[C@H](O)[C@H](O)[C@H]2NC(C)=O)NC(=O)CNC(=O)CCCOc2ccc3nc(-c4cn(-c5ccc(O)c(F)c5)nn4)ccc3c2)O[C@H](CO)[C@H](O)[C@@H]1O [MIF-GN3]	–	25.8 min	15 min	strong colocalization
